Test results published in PubChem BioAssay AID248 (DTP/NCI, 2004).
“And” between values parts separate entries of the source, which are not always exact repeats. Identical values can stand only once. Inconclusive results and toxic doses are left out. No stated cut-off is given here; in the data, active means T/C of 150% or more; inactive means T/C below 125%.

Test system: L1210 leukemia ip in BDF1 mice, survival T/C
Assay: NCI In Vivo Anticancer Drug Screen. Data for tumor model L1210 Leukemia (intraperitoneal) in B6D2F1 (BDF1) mice
Details: endpoint: mean survival time, higher = longer survival
Procedure, shortened: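 Tumor cells were implanted, animals were treated, and survival was followed. The result divides the treated measurement by the vehicle-control measurement.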

[1] = dose: 50.0 mg/kg/injection, schedule: Q01DX001 (ip), vehicle: carboxymethylcellulose (CMC)
[2] = dose: 100.0 mg/kg/injection, schedule: Q01DX001 (ip), vehicle: carboxymethylcellulose (CMC)
[3] = dose: 200.0 mg/kg/injection, schedule: Q01DX001 (ip), vehicle: carboxymethylcellulose (CMC)
[4] = dose: 400.0 mg/kg/injection, schedule: Q01DX001 (ip), vehicle: carboxymethylcellulose (CMC)
[5] = dose: 100.0 mg/kg/injection, schedule: Q04DX003 (ip), vehicle: saline
[6] = dose: 200.0 mg/kg/injection, schedule: Q04DX003 (ip), vehicle: saline
[7] = dose: 400.0 mg/kg/injection, schedule: Q04DX003 (ip), vehicle: saline
[8] = dose: 100.0 mg/kg/injection, schedule: Q01DX009 (ip), vehicle: saline with Tween-80
[9] = dose: 100.0 mg/kg/injection, schedule: Q04DX002 (ip), vehicle: Klucel (hydroxypropylcellulose) (HPC)
[10] = dose: 200.0 mg/kg/injection, schedule: Q01DX009 (ip), vehicle: saline with Tween-80
[11] = dose: 200.0 mg/kg/injection, schedule: Q04DX002 (ip), vehicle: Klucel (hydroxypropylcellulose) (HPC)
[12] = dose: 400.0 mg/kg/injection, schedule: Q04DX002 (ip), vehicle: Klucel (hydroxypropylcellulose) (HPC)
[13] = dose: 400.0 mg/kg/injection, schedule: Q01DX009 (ip), vehicle: saline with Tween-80
[14] = dose: 100.0 mg/kg/injection, schedule: Q01DX001 (ip), vehicle: saline
[15] = dose: 200.0 mg/kg/injection, schedule: Q01DX001 (ip), vehicle: saline
[16] = dose: 50.0 mg/kg/injection, schedule: Q01DX009 (ip), vehicle: saline with Tween-80
[17] = dose: 100.0 mg/kg/injection, schedule: Q04DX003 (ip), vehicle: saline with Tween-80
[18] = dose: 200.0 mg/kg/injection, schedule: Q04DX003 (ip), vehicle: saline with Tween-80
[19] = dose: 400.0 mg/kg/injection, schedule: Q04DX003 (ip), vehicle: saline with Tween-80
[20] = dose: 100.0 mg/kg/injection, schedule: Q01DX009 (ip), vehicle: Klucel (hydroxypropylcellulose) (HPC)
[21] = dose: 200.0 mg/kg/injection, schedule: Q01DX009 (ip), vehicle: Klucel (hydroxypropylcellulose) (HPC)
[22] = dose: 100.0 mg/kg/injection, schedule: Q04DX003 (ip), vehicle: Klucel (hydroxypropylcellulose) (HPC)
[23] = dose: 200.0 mg/kg/injection, schedule: Q04DX003 (ip), vehicle: Klucel (hydroxypropylcellulose) (HPC)
[24] = dose: 400.0 mg/kg/injection, schedule: Q04DX003 (ip), vehicle: Klucel (hydroxypropylcellulose) (HPC)

Measured: T/C

BrCCC[CH2][Pb]([c]1ccccc1)([c]1ccccc1)[c]1ccccc1
inactive: [1] 102 % of control | [2] 105 % of control | [3] 111 % of control | [4] 100 % of control

C/C(=C(/CCO)SCCC(=O)c1ccc(C)cc1)N(C=O)Cc1cnc(C)nc1N
inactive: [5] 97 % of control | [6] 97 % of control | [7] 93 % of control

CCOC(=O)CC1=NC(C)(C)CC(C)O1 (centres undefined)
inactive: dose: 100.0 mg/kg/injection, schedule: Q04DX003 (ip), vehicle: saline sonified 98 % of control | dose: 200.0 mg/kg/injection, schedule: Q04DX003 (ip), vehicle: saline sonified 92 % of control | dose: 400.0 mg/kg/injection, schedule: Q04DX003 (ip), vehicle: saline sonified 115 % of control

CCOc1ccc(Cl)cc1
inactive: dose: 75.0 mg/kg/injection, schedule: Q01DX009 (ip), vehicle: Klucel (hydroxypropylcellulose) (HPC) 117 % of control | [8] 108 % of control | [9] 100 % of control | dose: 150.0 mg/kg/injection, schedule: Q01DX009 (ip), vehicle: Klucel (hydroxypropylcellulose) (HPC) 93 % of control | [10] 106 % of control | [11] 103 % of control | dose: 300.0 mg/kg/injection, schedule: Q01DX009 (ip), vehicle: Klucel (hydroxypropylcellulose) (HPC) 96 % of control | [12] 92 % of control

CCC(CCC(C)C1CCC2C3CC=C4CC(OC(=O)CCC(=O)O)CCC4(C)C3CCC12C)C(C)C (centres undefined)
inactive: [8] 101 % of control | [10] 96 % of control | [13] 92 % of control

O=C(O)CSCc1cc(=O)[nH]c(=O)[nH]1
inactive: [5] 96 % of control | [6] 96 % of control | [7] 98 % of control

CCOC(=O)CSCCC1CC(=O)N1 (centres undefined)
inactive: dose: 100.0 mg/kg/injection, schedule: Q04DX003 (ip), vehicle: other 103 % of control | dose: 200.0 mg/kg/injection, schedule: Q04DX003 (ip), vehicle: other 104 % of control | dose: 400.0 mg/kg/injection, schedule: Q04DX003 (ip), vehicle: other 107 % of control

OCCCCc1ccccc1
inactive: dose: 100.0 mg/kg/injection, schedule: Q01DX001 (ip), vehicle: saline sonified 95 % of control | dose: 100.0 mg/kg/injection, schedule: Q01DX009 (ip), vehicle: saline sonified 104 % of control | dose: 200.0 mg/kg/injection, schedule: Q01DX001 (ip), vehicle: saline sonified 101 % of control | dose: 200.0 mg/kg/injection, schedule: Q01DX009 (ip), vehicle: saline sonified 97 % of control | dose: 400.0 mg/kg/injection, schedule: Q01DX001 (ip), vehicle: saline sonified 111 % of control

Cc1cc(=O)n2c3c(ccc([N+](=O)[O-])c13)OC2
inactive: [14] 104 % of control | [15] 99 % of control | dose: 400.0 mg/kg/injection, schedule: Q01DX001 (ip), vehicle: saline 95 % of control

CC(C)(CCc1ccccn1)C(=O)C(CCc1ccccn1)CCc1ccccn1
inactive: dose: 222.0 mg/kg/injection, schedule: Q01DX Z (ip), vehicle: saline 110 % of control | dose: 333.0 mg/kg/injection, schedule: Q01DX Z (ip), vehicle: saline 102 % of control | dose: 500.0 mg/kg/injection, schedule: Q01DX Z (ip), vehicle: saline 96 % of control

O=C(/C=C/c1ccccc1)NC(=S)Nc1cccc2ccccc12
inactive: dose: 25.0 mg/kg/injection, schedule: Q01DX009 (ip), vehicle: saline with Tween-80 96 % of control and 90 % of control | [16] 94 % of control | dose: 100.0 mg/kg/injection, schedule: Q01DX001 (ip), vehicle: saline with Tween-80 93 % of control | dose: 100.0 mg/kg/injection, schedule: Q04DX002 (ip), vehicle: alcohol 87 % of control | [17] 86 % of control | dose: 200.0 mg/kg/injection, schedule: Q01DX001 (ip), vehicle: saline with Tween-80 97 % of control | dose: 200.0 mg/kg/injection, schedule: Q04DX002 (ip), vehicle: alcohol 97 % of control | [18] 100 % of control | dose: 400.0 mg/kg/injection, schedule: Q01DX001 (ip), vehicle: saline with Tween-80 93 % of control | dose: 400.0 mg/kg/injection, schedule: Q04DX002 (ip), vehicle: alcohol 93 % of control | [19] 105 % of control

CC(C)C#C/C=C/C(C)C
inactive: [16] 95 % of control | [8] 95 % of control | [10] 103 % of control

Cc1cccc(NC(=O)NCCN(C)Cc2ccccc2)c1
inactive: [1] 101 % of control | [2] 98 % of control | [3] 101 % of control | [4] 104 % of control

CC(=O)Nc1cc(Cl)c(Cl)c([N+](=O)[O-])c1
inactive: [20] 100 % of control | [21] 97 % of control

N#CC(C(=O)c1ccccc1)c1cccc2ccccc12 (centres undefined)
inactive: dose: 50.0 mg/kg/injection, schedule: Q01DX009 (ip), vehicle: Klucel (hydroxypropylcellulose) (HPC) 101 % of control | [20] 95 % of control | [22] 95 % of control | [21] 103 % of control | [23] 91 % of control | [24] 91 % of control

O=C1C2CCN(CC2)C1Cc1ccccc1 (centres undefined)
inactive: dose: 100.0 mg/kg/injection, schedule: Q04DX002 (ip), vehicle: saline 111 % of control | dose: 200.0 mg/kg/injection, schedule: Q04DX002 (ip), vehicle: saline 107 % of control

O=S(O)OS(=O)O
inactive: dose: 100.0 mg/kg/injection, schedule: Q01DX009 (ip), vehicle: saline 93 % of control | [5] 100 % of control | dose: 200.0 mg/kg/injection, schedule: Q01DX009 (ip), vehicle: saline 90 % of control | [6] 104 % of control | dose: 400.0 mg/kg/injection, schedule: Q01DX009 (ip), vehicle: saline 86 % of control | [7] 102 % of control

O=C(Nc1ccc2ccccc2c1)C1CC1
inactive: [9] 100 % of control | [11] 107 % of control | [12] 115 % of control

O=C(CC(=O)c1cccnc1)NC(=O)c1ccccc1
inactive: dose: 100.0 mg/kg/injection, schedule: Q01DX001 (ip), vehicle: other 96 % of control | dose: 200.0 mg/kg/injection, schedule: Q01DX001 (ip), vehicle: other 86 % of control | dose: 400.0 mg/kg/injection, schedule: Q01DX001 (ip), vehicle: other 89 % of control

Cc1ccccc1NC(N)=O
inactive: [22] 110 % of control | [23] 105 % of control | [24] 103 % of control

CCN(CC)CCC#N
inactive: dose: 50.0 mg/kg/injection, schedule: Q01DX001 (ip), vehicle: saline 94 % of control | [14] 94 % of control | [15] 100 % of control

COC(=O)C1C2CC(Br)C(Br)CC21 (centres undefined)
inactive: [17] 94 % of control | [18] 94 % of control | [19] 94 % of control

CCC(=O)C(CC)c1cccc(OC)c1 (centres undefined)
inactive: [8] 100 % of control | [17] 100 % of control | [10] 94 % of control | [18] 97 % of control | [13] 114 % of control | [19] 97 % of control

CCC(C(N)=O)N1C(=O)C2C3CCC(C3)C2C1=O (centres undefined)
inactive: [17] 90 % of control | [5] 107 % of control | [18] 100 % of control | [6] 107 % of control | [19] 100 % of control | [7] 98 % of control
